Measurements published in ChEMBL document CHEMBL5518209, “Caltrop-like Small-Molecule Antidotes That Neutralize Unfractionated Heparin and Low-Molecular-Weight Heparin In Vivo” (J Med Chem, 2024).
Active and inactive are the calls of the source. No cut-off for these calls is given here.

Legend:
[1] = species on record: Homo sapiens; test: Neutralization of enoxaparin sodium in human poor platelet plasma at 10 to 50 ug/ml by aPTT assay relative to control; assay type: cell-free; details: dose 10-50 µg/ml
[2] = species on record: Bos taurus; test: Neutralization of enoxaparin sodium in bovine plasma at 10 to 60 ug/ml by aPTT assay; assay type: cell-free; details: dose 10-60 µg/ml
[3] = Binding affinity to unfractionated heparin in saline at pH 7.4 assessed as binding constant by ITC analysis
[4] = Binding affinity to unfractionated heparin in saline at pH 7.4 assessed as change in entropy by ITC analysis
[5] = Binding affinity to dalteparin sodium in saline at pH 7.4 assessed as change in entropy by ITC analysis
[6] = Binding affinity to enoxaparin sodium in saline at pH 7.4 assessed as change in entropy by ITC analysis
[7] = Binding affinity to nadroparin calcium in saline at pH 7.4 assessed as change in entropy by ITC analysis
[8] = Binding affinity to enoxaparin sodium in saline at pH 7.4 assessed as change in gibbs free energy by ITC analysis
[9] = test system: Blood; test: Ex vivo neutralization of dalteparin sodium in Sprague-Dawley rat whole blood assessed as restoration of blood coagulation at 10 to 15 ug/ml incubated for 15 mins; assay type: functional, tissue-based; details: dose 10-15 µg/ml
[10] = test system: Blood; test: Ex vivo neutralization of enoxaparin sodium in Sprague-Dawley rat whole blood assessed as restoration of blood coagulation at 10 to 15 ug/ml incubated for 15 mins; assay type: functional, tissue-based; details: dose 10-15 µg/ml
[11] = species on record: Homo sapiens; test: Reversal of anticoagulation of unfractionated heparin in human whole blood assessed as restoration of normal clotting time at 5 to 20 ug/ml incubated for 5 mins by thromboelastography; assay type: tissue-based; details: dose 5-20 µg/ml
[12] = species on record: Homo sapiens; test: Reversal of anticoagulation of enoxaparin sodium in human whole blood assessed as restoration of normal clotting time at 5 to 20 ug/ml incubated for 5 mins by thromboelastography; assay type: tissue-based; details: dose 5-20 µg/ml
[13] = species on record: Homo sapiens; test: Reversal of anticoagulation of nadroparin calcium in human whole blood assessed as restoration of normal clotting time at 5 to 20 ug/ml incubated for 5 mins by thromboelastography; assay type: tissue-based; details: dose 5-20 µg/ml
[14] = species on record: Homo sapiens; test: Reversal of anticoagulation of dalteparin sodium in human whole blood assessed as restoration of normal coagulation rate at 5 to 20 ug/ml incubated for 5 mins by thromboelastography; assay type: tissue-based; details: dose 5-20 µg/ml
[15] = species on record: Homo sapiens; test: Reversal of anticoagulation of enoxaparin sodium in human whole blood assessed as restoration of normal coagulation rate at 5 to 20 ug/ml incubated for 5 mins by thromboelastography; assay type: tissue-based; details: dose 5-20 µg/ml
[16] = species on record: Homo sapiens; test: Reversal of anticoagulation of unfractionated heparin in human whole blood assessed as restoration of normal clotting strength at 2 to 20 ug/ml incubated for 5 mins by thromboelastography; assay type: tissue-based; details: dose 2-20 µg/ml
[17] = species on record: Homo sapiens; test: Reversal of anticoagulation of enoxaparin sodium in human whole blood assessed as restoration of normal clotting strength at 2 to 20 ug/ml incubated for 5 mins by thromboelastography; assay type: tissue-based; details: dose 2-20 µg/ml
[18] = Binding affinity to unfractionated heparin in saline at pH 7.4 assessed as increase in fluorescence by measuring inflection point by fluorescence titration method
[19] = Binding affinity to dalteparin sodium in saline at pH 7.4 assessed as increase in fluorescence by measuring inflection point by fluorescence titration method
[20] = Binding affinity to nadroparin calcium in saline at pH 7.4 assessed as increase in fluorescence by measuring inflection point by fluorescence titration method
[21] = species on record: Homo sapiens; test: Reversal of anticoagulation of dalteparin sodium in human whole blood assessed as minimum effective dose incubated for 5 mins by thromboelastography; assay type: tissue-based
[22] = species on record: Homo sapiens; test: Reversal of anticoagulation of enoxaparin sodium in human whole blood assessed as minimum effective dose incubated for 5 mins by thromboelastography; assay type: tissue-based
[23] = species on record: Homo sapiens; test: Reversal of anticoagulation of nadroparin calcium in human whole blood assessed as minimum effective dose incubated for 5 mins by thromboelastography; assay type: tissue-based
[24] = Effect on bleeding time in ICR mouse at 0.4 mg/kg, iv treated for 5 mins; assay type: toxicity, organism-based; details: in vivo
[25] = Induction of blood loss in ICR mouse at 0.4 mg/kg, iv treated for 5 mins; assay type: toxicity, organism-based; details: in vivo
[26] = test system: Mus musculus; test: In vivo antagonism of dalteparin sodium induced anticoagulation in ICR mouse assessed as bleeding time at 0.4 mg/kg, iv administered via tail vein pretreated with heparin for 5 mins followed by compound addition and measured after 5 mins (reference value: 96.5 +/- 20.6 min); assay type: functional
[27] = test system: Rattus norvegicus; test: In vivo antagonism of enoxaparin sodium induced anticoagulation in Sprague-Dawley rat assessed as clotting strength at 0.4 mg/kg, iv administered via tail vein pretreated with enoxaparin sodium for 5 mins followed by compound addition and measured after 2.5 mins by thromboelastography; assay type: functional
[28] = test system: Rattus norvegicus; test: In vivo antagonism of enoxaparin sodium induced anticoagulation in Sprague-Dawley rat assessed as restoration of normal clotting strength at 1 mg/kg, iv administered via tail vein pretreated with enoxaparin sodium for 5 mins followed by compound addition and measured after 2.5 mins by thromboelastography; assay type: functional, organism-based
[29] = Toxicity in ICR mouse assessed as effect on animal activity at 25 mg/kg, iv administered as single dose through tail vein and measured on day 2; assay type: organism-based; details: in vivo, 48 h, time 2 day
[30] = Toxicity in ICR mouse assessed as effect on animal activity at 0.4 to 25 mg/kg, iv administered as single dose through tail vein and measured after 3 to 14 days; assay type: organism-based; details: in vivo, dose lower 0.4 mg/kg, time lower 3 day, dose upper 25 mg/kg, time upper 14 day
[31] = Toxicity in ICR mouse assessed as histopathological changes in heart at 25 mg/kg, iv administered as single dose through tail vein and measured after 14 days by H and E staining based analysis; assay type: organism-based; details: in vivo, 336 h, time 14 day
[32] = Toxicity in ICR mouse assessed as histopathological changes in lungs at 25 mg/kg, iv administered as single dose through tail vein and measured after 14 days by H and E staining based analysis; assay type: organism-based, Lung; details: in vivo, 336 h, time 14 day
[33] = Toxicity in Sprague-Dawley rat assessed as change in urine indexes at 0.4 mg/kg, iv measured after 5 hrs; assay type: organism-based; details: in vivo
[34] = Blood compatibility in bovine plasma assessed as activated partial thromboplastin time at <45 ug/ml by turbidimetry method; assay type: toxicity, cell-free, Bos taurus; details: cattle, dose < 45 µg/ml
[35] = test system: Erythrocyte; test: Hemolytic activity in human red blood cells at 512 ug/ml; assay type: toxicity, cell-based; details: dose 512 µg/ml
[36] = test system: Erythrocyte; test: Hemolytic activity in Sprague-Dawley rat red blood cells at 512 ug/ml; assay type: toxicity, cell-based; details: dose 512 µg/ml

NCCOc1ccc(-c2cc[n+](Cc3ccc(C(c4ccc(C[n+]5ccc(-c6ccc(OCCN)c(OCCN)c6)cc5)cc4)(c4ccc(C[n+]5ccc(-c6ccc(OCCN)c(OCCN)c6)cc5)cc4)c4ccc(C[n+]5ccc(-c6ccc(OCCN)c(OCCN)c6)cc5)cc4)cc3)cc2)cc1OCCN.[Cl-].[Cl-].[Cl-].[Cl-]
Activity [1]: 97%
Activity [2]: Active
Ka [3]: 2.92e+07 M⁻¹
-TdeltaS [4]: -18.1 kJ/mol
-TdeltaS [5]: -22.6 kJ/mol
-TdeltaS [6]: -8.58 kJ/mol
-TdeltaS [7]: -14.2 kJ/mol
deltaG [8]: -41.5 kJ/mol
Activity [9]: Active
Activity [10]: Active
Activity [11]: Active
Activity [12]: Active
Activity [13]: Active
Activity [14]: Active
Activity [15]: Active
Activity [16]: Active
Activity [17]: Active
IP [18]: 2.4
IP [19]: 2.6
IP [20]: 3
MED [21]: 4 µg/mL
MED [22]: 4 µg/mL
MED [23]: 4 µg/mL
Activity [24]: Non-Toxic
Activity [25]: Non-Toxic
Time [26]: 20.9 min
Activity [27]: 67 mm
Activity [28]: Active
Activity [29]: Toxic
Activity [30]: Non-Toxic
Activity [31]: Non-Toxic
Activity [32]: Non-Toxic
Activity [33]: Non-Toxic
APTT [34]: 23 s
Activity [35]: Non-Toxic
Activity [36]: Non-Toxic
